In one test the test system is Puccinia recondita. In words: Example G wheat leaf rust. The test is classed as in vivo. To be noted: read-out: disease control rating, Ex. G.
Another test has as its system Botrytis cinerea. In words: Example C bean grey mold. Format: in vivo. To be noted: for pest or weed control at 20 ppm / pest or weed control at 100 ppm: Botrytis cinerea, 24 h, read-out: disease control rating, Ex. C. As for the experimental part: The test compounds were dissolved in acetone in an amount equal to 6% of the final volume and then suspended at a concentration of 100 or 20 ppm in purified water containing 250 ppm of the surfactant TREM 014 (polyhydric alcohol esters). This suspension was sprayed to the point of run-off on broad bean seedlings.

The subject of test [1] is Aspergillus fumigatus ATCC 28214. In words: In vitro antifungal MIC, microtiter broth dilution. To be noted: for MIC: Aspergillus fumigatus, ATCC28214, 24 h, read-out: MIC values, A. fumigatus, 30°, 24 hours.
Description: In vitro activity (Table 5) is expressed in terms of the minimal inhibitory concentration (MIC) of the test compound which inhibits the growth of yeasts and fungi.
The target organisms, Candida albicans ATCC 11651 and Aspergillus fumigatus ATCC 28214 are standardized, [V. Bezjak, J. Clinical Micro., 21 509-512 (1984)], to a concentration of 10^7 organisms/ml and maintained at -70° until use. Test compounds are solubilized in dimethyl sulfoxide (DMSO) and diluted in Eagle's Minimum Essential Medium (EMEM) broth to achieve a final concentration of 200 μg/ml. Stock solutions of standard antifungal agents are stored at -70° and diluted in EMEM as required.
The in vitro assay utilizes a microtiter broth dilution technique [L. Polonelli and G. Morace, Mycopathologia, 86, 21-28 (1984)] and C. […] The appropriate wells are inoculated with the required organism (C. albicans at 1×10^4 organisms/ml and A. fumigatus at 5×10^5 organisms/ml) and the assay incubated at 30° for 24 hours.
Another test concerns Rhizoctonia solani. Kind of test: Example F rice sheath blight. To be noted: for pest or weed control at 20 ppm / pest or weed control at 100 ppm: Rhizoctonia solani, 144 h, read-out: disease control rating, Ex. F. The test is classed as in vivo. The method, then: The test compounds were dissolved in acetone in an amount equal to 6% of the final volume and then suspended at a concentration of 100 or 20 ppm in purified water containing 250 ppm of the surfactant TREM 014 (polyhydric alcohol esters). This suspension was sprayed to the point of run-off on rice seedlings.

Test [2] concerns Candida albicans ATCC 11651. In words: In vivo systemic Candida infection in mice, primary assay. Further details: species or system Candida albicans; CF-1 female mice. To be noted: 150 mg/kg per day; for responders at 150 mg/kg: Candida albicans, read-out: % Survival. An excerpt: The […] activity of test compounds is based on the percent (%) survival of infected animals receiving test or standard agent compared to that in an infected untreated group (Table 6). The in vivo assays are chronic systemic infections lethal to mice within 7 days post infection, [J. Barnes, et al. Lab Investigation, 49 460-467 (1963), and T. Rogers and E. Balish, Infection and Immunity, 14 33-38 (1976)].
Candida albicans ATCC 11651, from a frozen stock culture (10^9 organisms/ml) maintained at -70°, is diluted in saline to 1×10^7 organisms/ml and 0.2 ml inoculated intravenously (caudal vein) into 20.0 gm CF-1 female mice (Charles River).
Test compounds are routinely solubilized in 0.25% (w/v) methylcellulose (Methocel®) but for those compounds difficult to solubilize 10% (w/v) Emulophor® (EL620 GAF Corp.) is used. The standard antifungal agents, amphotericin B (Fungizone®) in water and ketoconazole (Nizoral®) in Methocel®, are administered at 1.0 mg/kg/day and 150 mg/kg/day, respectively.
In a primary assay, mice (10 per group) are infected with C. albicans, and receive test compounds at 50 or 150 mg/kg/day via the subcutaneous route. Animals are dosed with the test compound at 1 and 6 hour post-infection and then once daily for the next three days. Survival of mice in each group is recorded for 21 days.
Compounds which protect ≥70% of the infected animals for 14 days at a dose 150 mg/kg/day or less are viewed as active.

The subject of test [3] is Candida albicans ATCC 11651. Kind of test: In vitro antifungal MIC, microtiter broth dilution. To be noted: for MIC: Candida albicans, ATCC11651, 24 h, read-out: MIC values, C. albicans, 30°, 24 hours. A general note: Dilution methods test growth across graded concentrations, often in twofold steps.
The subject of the next test is Venturia inaequalis. In words: Example A apple scab. Format: in vivo. To be noted: read-out: disease control rating, Ex. A. The method, then: The test compounds were dissolved in acetone in an amount equal to 6% of the final volume and then suspended at a concentration of 100 or 20 ppm in purified water containing 250 ppm of the surfactant TREM 014 (polyhydric alcohol esters). This suspension was sprayed to the point of run-off on apple seedings.

A further test has as its system Plasmorpara viticola. In words: Example I grape downy mildew. Format: in vivo. To be noted: for pest or weed control at 100 ppm: read-out: disease control rating, Ex. I. As for the experimental part: The test compounds were dissolved in acetone in an amount equal to 6% of the final volume and then suspended at a concentration of 100 or 20 ppm in purified water containing 250 ppm of the surfactant TREM 014 (polyhydric alcohol esters). This suspension was sprayed to the point of run-off on grape seedlings.

Test [4] deals with Cercosporidium personatum. In words: Example B Peanut Late Leafspot. Format: in vivo. To be noted: Nothopassalora personata, read-out: disease control rating, Ex. B. As for the experimental part:
The test compounds were dissolved in acetone in an amount equal to 6% of the final volume and then suspended at a concentration of 100 or 20 ppm in purified water containing 250 ppm of the surfactant TREM 014 (polyhydric alcohol esters). This suspension was sprayed to the point of run-off on peanut seedlings.

For another test, the system named is Pyricularia oryzae. In words: whole plant or invertebrate. The test is classed as in vivo. To be noted: for pest or weed control at 20 ppm / pest or weed control at 100 ppm: Pyricularia oryzae, 120 h; for pest or weed control at 20 ppm: read-out: disease control rating, Ex. E, 20 PPM; for pest or weed control at 100 ppm: read-out: disease control rating, Ex. E, 100 PPM.

Test [5] has as its system Erysiphe graminis f. sp. tritici. Kind of test: Example D wheat powdery mildew. Format: in vivo. To be noted: Blumeria graminis, 144 h, read-out: disease control rating, Ex. D. The method, then:
The test compounds were dissolved in acetone in an amount equal to 6% of the final volume and then suspended at a concentration of 100 or 20 ppm in purified water containing 250 ppm of the surfactant TREM 014 (polyhydric alcohol esters). This suspension was sprayed to the point of run-off on wheat seedlings.

Another test has as its system Phytophthora infestans. Kind of test: whole plant or invertebrate. To be noted: for pest or weed control at 100 ppm: Phytophthora infestans, in Solanum lycopersicum, read-out: disease control rating, Ex. H, 100 PPM. The test is classed as in vivo.

The text below walks through data of patent US4965280A, “Antifungal carbinols” (E. I. Du Pont de Nemours and Company, priority 1989, dated 1990).

Each structure is given as a SMILES string. Converted amounts (≈) assume the structure as drawn. Read-outs that look alike come from different tables or passages of the source.

Usually MIC stands for the least concentration at which growth counts as inhibited.

`C=C(c1ccc(F)cc1)C(O)(Cn1cncn1)c1ccc(F)cc1` (single isomer, unassigned) [Example 1277a]: the pest or weed control at 20 ppm with Puccinia recondita worked out at 100%; in the test with Botrytis cinerea, 24%; with Rhizoctonia solani it was 0%; in the test with Venturia inaequalis, 58%; in test [4], 74%; with Pyricularia oryzae, 1%. For the same compound, in test [5], the pest or weed control at 20 ppm amounted to 95%. Also, the “disease control rating, Ex. C” value in the test with Botrytis cinerea (100 PPM) is recorded as 36%. Besides, in test [1] (30°, 24 hours), the “MIC values, A. fumigatus” value was found to be 100 mg/L (≈ 305 µM). In the test on Rhizoctonia solani (100 PPM), the “disease control rating, Ex. F” value was determined as 52%. The figures for the “% Survival” value in test [2] (day 7), in [2] (day 14) and in [2] (day 21) were 80%, 0% and 0%, respectively. For the same compound, the “MIC values, C. albicans” value in test [3] (30°, 24 hours) is 6.3 mg/L (≈ 19.2 µM). The “disease control rating, Ex. I” value in the test on Plasmorpara viticola (100 PPM) came out at 31%. For the same compound, the “disease control rating, Ex. E” value with Pyricularia oryzae (100 PPM) was 1%. The “disease control rating, Ex. H” value with Phytophthora infestans (100 PPM) is 8%.
With `C=C(c1ccc(F)cc1)C(O)(Cn1cncn1)c1ccc(OC)cc1` (stereo not shown) [Example 663], the pest or weed control at 100 ppm in the test on Puccinia recondita was 100%; with Botrytis cinerea (100 PPM), 95%; with Rhizoctonia solani (100 PPM), 36%; in the test on Venturia inaequalis it was 42%; in the test on Plasmorpara viticola it was 39%; in test [4], 100%. Moreover, the pest or weed control at 100 ppm was 57% in the test on Pyricularia oryzae, 99% in test [5] and 0% in the test on Phytophthora infestans.
With `C=C(c1ccc(Cl)cc1)C(O)(Cn1cncn1)c1cccc(C(F)(F)F)c1` (stereo not shown) [Example 685], the pest or weed control at 20 ppm in the test on Puccinia recondita came to 100%; with Botrytis cinerea, 28%; with Rhizoctonia solani it was 15%; in the test on Venturia inaequalis, 57%; in [4], 66%; in test [5], 67%. Besides, the values for the pest or weed control at 100 ppm with Botrytis cinerea (100 PPM), in the test on Rhizoctonia solani (100 PPM) and with Pyricularia oryzae were 0%, 29% and 0%, respectively. The MIC in test [1] came out at 100 mg/L (≈ 254 µM); in [3], 0.8 mg/L (≈ 2.03 µM). The responders at 150 mg/kg in [2] (ATCC11651, 168 h, day 7) stood at 30%; in [2] (ATCC11651, 336 h, day 14), 10%; in [2] (ATCC11651, 504 h, day 21), 0%.
On to `C=C(c1ccc(S(C)(=O)=O)cc1)C(O)(Cn1cncn1)c1ccc(F)cc1` (stereo not shown) [Example 177], for which the pest or weed control at 20 ppm in the test on Puccinia recondita came to 100%; with Botrytis cinerea, 50%; with Rhizoctonia solani it was 0%; in the test with Venturia inaequalis, 82%; in test [4], 26%; in the test with Pyricularia oryzae, 0%. For the same compound, the pest or weed control at 20 ppm in test [5] was 46%. Further, the pest or weed control at 100 ppm in the test with Botrytis cinerea (100 PPM) was found to be 26%; in the test on Rhizoctonia solani (100 PPM), 0%; with Plasmorpara viticola, 0%; in the test on Pyricularia oryzae, 10%; in the test with Phytophthora infestans, 0%. Moreover, the MIC in [1] was over 100 mg/L; in test [3] it was 3.2 mg/L (≈ 8.26 µM).
Regarding `C=C(c1ccc([S+](C)[O-])cc1)C(O)(Cn1cncn1)c1ccc(F)cc1` (stereo not shown) [Example 170], the pest or weed control at 20 ppm with Puccinia recondita was determined as 100%; in the test with Botrytis cinerea it was 32%; with Rhizoctonia solani, 0%; with Venturia inaequalis it was 19%; in test [4], 69%; with Pyricularia oryzae it was 0%. Moreover, the pest or weed control at 20 ppm in test [5] worked out at 95%. The pest or weed control at 100 ppm in the test with Botrytis cinerea (100 PPM) stood at 20%; with Rhizoctonia solani (100 PPM), 0%; with Plasmorpara viticola it was 0%; in the test with Pyricularia oryzae it was 10%; with Phytophthora infestans it was 0%. Besides, the results for the minimal inhibitory concentration (MIC) in [1] and in [3] were 100 mg/L (≈ 269 µM) and 1.6 mg/L (≈ 4.31 µM), respectively.
For the compound `C=C(CN(C)C)C(O)(Cn1cncn1)c1ccc(F)cc1` (stereo not shown) [Example 454], the pest or weed control at 100 ppm (in the test with Puccinia recondita; with Botrytis cinerea (100 PPM); with Rhizoctonia solani (100 PPM); in the test on Venturia inaequalis; with Plasmorpara viticola; in [4]) was 0% throughout. In addition, the pest or weed control at 100 ppm amounted to 0% in the test on Pyricularia oryzae, 22% in test [5] and 0% in the test on Phytophthora infestans. Moreover, the MIC was over 100 mg/L in [1] and 100 mg/L (≈ 344 µM) in [3].
For `OC(Cn1cncn1)(C(=Cc1ccccc1)c1ccccc1)c1ccc(F)cc1` (stereo not shown) [Example 291], the pest or weed control at 20 ppm came out at 73% in the test on Puccinia recondita; 6% with Botrytis cinerea; 0% with Rhizoctonia solani; 32% in the test on Venturia inaequalis; 26% in test [4]; 1% with Pyricularia oryzae. The pest or weed control at 20 ppm in [5] is 83%. In addition, the pest or weed control at 100 ppm turned out to be 81% in the test on Botrytis cinerea (100 PPM); 0% with Rhizoctonia solani (100 PPM); 78% in the test with Plasmorpara viticola; 1% in the test with Pyricularia oryzae; 24% in the test on Phytophthora infestans. Also, the minimal inhibitory concentration (MIC) turned out to be 100 mg/L (≈ 259 µM) in [1] and 0.2 mg/L (≈ 0.519 µM) in [3].
For the compound `C=C(CO)C(O)(Cn1cncn1)c1ccccc1` (stereo not shown) [Example 448], the pest or weed control at 100 ppm in the test on Puccinia recondita is 16%; in the test on Botrytis cinerea (100 PPM), 54%; in the test on Rhizoctonia solani (100 PPM) it was 42%; in the test with Plasmorpara viticola, 0%; in test [4], 0%; in the test with Pyricularia oryzae it was 0%. In the test on Phytophthora infestans, the pest or weed control at 100 ppm is 0%.
